In patent US6022969A, “Compositions and methods for treating mast-cell mediated conditions” (AXYS Pharmaceuticals, Inc., priority 1995, dated 2000) one finds Ki data, which are given here for 21 molecules.

Structures are written as SMILES.

The test deals with tryptase. The test can be described thus: In vitro tryptase inhibition assay (hydrolysis of tosyl-Gly-Pro-Lys-p-nitroanilide). It counts as biochemical, human. As to conditions: tosyl-Gly-Pro-Lys-p-nitroanilide 0.5 mM, pH 8.2, 1 h pre-incubation, room temperature. As for the experimental part:
The compounds to be assayed (approximately 1 mg) were dissolved in 200 μL dimethylsulfoxide (DMSO) and diluted 1:10 into buffer containing 50 millimolar (mM) Tris-HCl (pH 8.2), 100 mM sodium chloride, and 0.05% polyoxyethylenesorbitan monolaurate (Tween-20®, available from Sigma, St. Louis, Mo.). Seven additional threefold dilutions were made from the initial dilution into the same buffer supplemented with 10% DMSO. Aliquots (50 microliters, μL) from each of the eight dilutions in the series were transferred to individual wells in a 96-well U-bottom microtiter plate. 25 μL of a stock solution of tryptase was added to each well and the samples were mixed and incubated for one hour at room temperature (tryptase was purified from human lung and skin tissue preparations, HMC-1 (human mast cell line) and also obtained from commercial sources (ICN Biomedicals, Irvine, Calif.; Athens Research & Technology, Athens, Ga.)). […] The tryptase solution was prepared by placing 60 μg/mL of tryptase into solution with 10 mM MES (2-[N-Morpholino]ethane sulfonic acid) containing 2 mM CaCl2, 20% glycerol and 50 μg/mL heparin. The enzyme reaction was initiated with the addition of the synthetic tripeptide substrate, tosyl-Gly-Pro-Lys-p-nitroanilide (available from Sigma, 25 μL; 0.5 mM final concentration).
However, Ki ' varies with the enzyme concentration used in the enzyme assay. […] The y-intercept of a replot of IC50 (ordinate) versus tryptase concentration (abscissa) produces a value for Ki '.
The inhibition constants (Ki ', micromolar (μM)) were determined for the compounds of the present invention.
What is called Ki is the equilibrium dissociation constant of an inhibitor or competing ligand from its target. Low readings indicate higher affinity, high ones lower affinity. The molecule `N=C(N)Nc1ccc(CNC(=O)N2CCN(C(=O)OCC3C4C=CC(CC4)C3COC(=O)N3CCN(C(=O)NCc4ccc(NC(=N)N)cc4)CC3)CC2)cc1` (stereo not drawn) [Compound 30, trans-2,3-bicyclo[2.2.2]oct-5-enylenedimethylene bis[4-(4-guanidinobenzylcarbamoyl)-1-piperazinecarboxylate]] yielded a Ki of 8 nM.
The molecule `N=C(N)Nc1ccc(CNC(=O)N2CCN(C(=O)OCC34CC5CC(C3)CC(COC(=O)N3CCN(C(=O)NCc6ccc(NC(=N)N)cc6)CC3)(C5)C4)CC2)cc1` [Compound 31, cis-1,5-tetracyclo[3.3.1.1^3,7]decylenedimethylene bis[4-(4-guanidinobenzylcarbamoyl)-1-piperazinecarboxylate]] showed a Ki of 26.6 nM.
Turning to `N=C(N)c1ccc(CCNC(=O)N2CCN(C(=O)O[C@H]3CCC[C@@H](OC(=O)N4CCN(C(=O)NCCc5ccc(C(=N)N)cc5)CC4)CCC3)CC2)cc1` [Compound 33, cis-1,5-cyclooctylene bis{4-[2-(4-amidinophenyl)ethylcarbamoyl)-1-piperazinecarboxylate}], affinity was put at a Ki of 440 nM.
For the molecule `NCCCCCNC(=O)N1CCN(C(=O)O[C@H]2CCC[C@@H](OC(=O)N3CCN(C(=O)NCCCCCN)CC3)CCC2)CC1` [Compound 34, cis-1,5-cyclooctylene bis[4-(5-aminopentylcarbamoyl)-1-piperazinecarboxylate]], the affinity corresponds to a Ki of 11 nM.
The result for `NCCCCCCNC(=O)N1CCN(C(=O)O[C@H]2CCC[C@@H](OC(=O)N3CCN(C(=O)NCCCCCCN)CC3)CCC2)CC1` [Compound 35, cis-1,5-cyclooctylene bis[4-(6-aminohexylcarbamoyl)-1-piperazinecarboxylate]] reads 1440 nM; that for `NCCC=CCNC(=O)N1CCN(C(=O)O[C@H]2CCC[C@@H](OC(=O)N3CCN(C(=O)NCC=CCCN)CC3)CCC2)CC1` [Compound 36, cis-1,5-cyclooctylene bis[4-(5-amino-2-pentenylcarbamoyl)-1-piperazinecarboxylate]], 125 nM.
As for `NCCCCNC(=O)N1CCN(C(=O)O[C@H]2CCC[C@@H](OC(=O)N3CCN(C(=O)NCCCCN)CC3)CCC2)CC1` [Compound 37, cis-1,5-cyclooctylene bis[4-(4-aminobutylcarbamoyl)-1-piperazinecarboxylate]], the affinity corresponds to a Ki of 508 nM.
With `NCCOCCNC(=O)N1CCN(C(=O)O[C@H]2CCC[C@@H](OC(=O)N3CCN(C(=O)NCCOCCN)CC3)CCC2)CC1` [Compound 38, cis-1,5-cyclooctylene bis{4-[2-(2-aminoethoxy)ethylcarbamoyl]-1-piperazinecarboxylate}] the figure was 750 nM.
`NC[C@H]1CC[C@H](NC(=O)OC2CCN(C(=O)O[C@H]3CCC[C@@H](OC(=O)N4CCC(OC(=O)N[C@H]5CC[C@H](CN)CC5)CC4)CCC3)CC2)CC1` [Compound 39, cis-1,5-cyclooctylene bis[4-(trans-4-aminomethylcyclohexylaminoformyloxy)-1-piperidinecarboxylate]] came in with a Ki of 858 nM.
In turn, `CN(CCOC(=O)N[C@H]1CC[C@H](CN)CC1)C(=O)O[C@H]1CCC[C@@H](OC(=O)N(C)CCOC(=O)N[C@H]2CC[C@H](CN)CC2)CCC1` [Compound 40, cis-1,5-cyclooctylene bis[N-2-(trans-4-aminomethylcyclohexylaminoformyloxy)ethyl-N-methylaminocarboxylate]] came in with a Ki of 1390 nM.
With `CN(CCOC(=O)NC[C@H]1CC[C@H](CN)CC1)C(=O)O[C@H]1CCC[C@@H](OC(=O)N(C)CCOC(=O)NC[C@H]2CC[C@H](CN)CC2)CCC1` [Compound 41, cis-1,5-cyclooctylene bis[N-2-(trans-4-aminomethylcyclohexylmethylaminoformyloxy)ethyl-N-methylaminocarboxylate}] the figure was 1100 nM; with `NC[C@H]1CC[C@H](CNC(=O)N2CCN(C(=O)OC[C@H]3CC[C@H](COC(=O)N4CCN(C(=O)NC[C@H]5CC[C@H](CN)CC5)CC4)CC3)CC2)CC1` [Compound 42, trans-1,4-cyclohexylenedimethylene bis[4-(trans-4-aminomethylcyclohexylmethylcarbamoyl)-1-piperazinecarboxylate]], 64 nM.
The result for `NC[C@H]1CC[C@H](CNC(=O)OC2CCN(C(=O)O[C@H]3CCC[C@@H](OC(=O)N4CCC(OC(=O)NC[C@H]5CC[C@H](CN)CC5)CC4)CCC3)CC2)CC1` [Compound 43, cis-1,5-cyclooctylene bis[4-(trans-4-aminomethylcyclohexylmethylaminoformyloxy)-1-piperidinecarboxylate]] reads 1450 nM.
With `N=C(N)c1ccc(C(=O)NCC2CCN(C(=O)O[C@H]3CCC[C@@H](OC(=O)N4CCC(CNC(=O)c5ccc(C(=N)N)cc5)CC4)CCC3)CC2)cc1` [Compound 44, cis-1,5-cyclooctylene bis[4-(4-amidinobenzoylaminomethyl)-1-piperidinecarboxylate]] the figure was 8 nM.
`N=C(N)C1CCN(C(=O)NCC2CCN(C(=O)O[C@H]3CCC[C@@H](OC(=O)N4CCC(CNC(=O)N5CCC(C(=N)N)CC5)CC4)CCC3)CC2)CC1` [Compound 45, cis-1,5-cyclooctylene bis[4-(4-amidinopiperid-1-ylcarbonylaminomethyl)-1-piperidinecarboxylate]]: the Ki came out at 114 nM.
The result for `N=C(N)Nc1ccc(CNC(=O)N2CCN(C(=O)C3CCCCC3C(=O)N3CCN(C(=O)NCc4ccc(NC(=N)N)cc4)CC3)CC2)cc1` (stereo not drawn) [Compound 46, 1,2-cyclohexylene bis[4-(4-guanidinobenzylcarbamoyl)-1-piperazinecarboxadehyde]] reads 772 nM; that for `N=C(N)Nc1ccc(CNC(=O)N2CCN(C(=O)OCC34CCC(COC(=O)N5CCN(C(=O)NCc6ccc(NC(=N)N)cc6)CC5)(CC3)CC4)CC2)cc1` [Compound 47, 1,4-bicyclo[2.2.2]octylenedimethylene bis[4-(4-guanidinobenzylcarbamoyl)-1-piperazinecarboxylate]], 0.42 nM.
The result for `N=C(N)Nc1ccc(C(=O)NCC2CCN(C(=O)O[C@H]3CCC[C@@H](OC(=O)N4CCC(CNC(=O)c5ccc(NC(=N)N)cc5)CC4)CCC3)CC2)cc1` [Compound 48, cis-1,5-cyclooctylene bis[4-(4-guanidinophenylcarbonylaminomethyl)-1-piperidinecarboxylate]] reads 2300 nM; that for `N=C(N)Nc1ccc(CNC(=O)N2CCN(C(=O)OC[C@H]3CC[C@@H](COC(=O)N4CCN(C(=O)NCc5ccc(NC(=N)N)cc5)CC4)CC3)CC2)cc1` [Compound 49, cis-1,4-cyclohexylenedimethylene bis[4-(4-guanidinobenzylcarbamoyl)-1-piperazinecarboxylate]], 3.4 nM; that for `N=C(N)Nc1ccc(CNC(=O)N2CCN(C(=O)O[C@H]3CCC[C@@H](OC(=O)N4CCN(C(=O)NCCCCCN)CC4)CCC3)CC2)cc1` [Compound 50, cis-5-[4-(5-aminopentylcarbamoyl)piperazin-1-ylformyloxy]cyclooctyl 4-(4-guanidinobenzylcarbamoyl)-1-piperazinecarboxylate], 0.45 nM.
Molecule `N=C(N)Nc1ccc(CNC(=O)N2CCN(C(=O)O[C@H]3CCC[C@@H](OC(=O)N4CCN(C(=O)NCCCCN)CC4)CCC3)CC2)cc1` [Compound 51, cis-5-[4-(4-aminobutylcarbamoyl)piperazin-1-ylformyloxy]cyclooctyl 4-(4-guanidinobenzylcarbamoyl)-1-piperazinecarboxylate] came in with a Ki of 3.8 nM.
